# Measured values from US20250059153A1, “BICYCLIC QUINONES, PHARMACEUTICAL COMPOSITIONS, AND THERAPEUTIC APPLICATIONS” (priority 2022, published 2025).
# Test system: Trypanosoma cruzi trypomastigote
# Experiment: Antiparasitic activity against Trypanosoma cruzi trypomastigote (viability by mobility under optical microscope)
# Assay type: cell-based
# Conditions: LLC-MK2, trypomastigotes from infected LLCMK2 cells, 1×10^7 parasites/mL, 24 h at 37° C.
# Procedure: Antiparasitic Activity Against Trypanosoma cruzi
# To evaluate antiparasitic activity against Trypanosoma cruzi trypomastigote, parasites were obtained from the supernatant of infected LLCMK2 cells. Trypomastigote (1×10^7 parasites/mL) was resuspended in DMEM supplemented with 10% FBS. The parasites were incubated in the presence of a compound at 500, 200, 100, 50, 10, 5, 1, 0.5, and 0.25 μM in 96-well plates for 24 h at 37° C. with 5% CO2. After incubation, the viability of the parasites was determined by examining mobility under an optical microscope. See, e.g., Brener, Rev. Inst. Med. Trop. São Paulo. 1962, 4, 389-96.
compound,measurement,value
"Cc1cc(=O)c2occoc=2c1=O [Compound A1, 6-methylbenzo[b][1,4]dioxine-5,8-dione]",EC50,2300 ± 300 nM
